Measurements: patent EP0446748A2, “Use of perylenedyes for the preparation of write, print or copying materials” (priority 1990, dated 1991)

Assay: Solubility of the dyes in organic solvent, determined after one week of the solution in contact with the solid dye with occasional shaking
Assay type: physicochemical
Details: CHCl₃, 20 °C; 10080 min
Excerpt: Die Perylenfarbstoffe werden aus technischen Perylen-3,4:9,10-tetracarbonsäurebisanhydrid (2,55 mmol), dem entsprechenden primären Amin oder dem Aminhydrochlorid (6 mmol) und Imidazol (5 g) dargestellt und werden entsprechend der Literatur gereinigt (siehe z.B. Chem. Ber. 118 4641 (1985) und Chem. Ber. 121 225 (1988)). Die Angaben beziehen sich auf die Darstellung von hochreine Farbstoffen. Die Perylenfarbstoffe der allgemeinen Formel I mit R¹ = R² = Hexyl, Dodecyl, Octadecyl, Cycloalkyl bis zu Cyclopentadecyl und sec-Alkyl bis 1-Hexylheptyl sind in Chem. Ber. 121 225 (1988) beschriebn. Die Löslichkeiten der Farbstoffe sind nach einer Woche der Lösung mit dem festen Farbstoff bei gelegentlichem Umschütteln bestimmt worden.

Compound | Löslichkeit (CHCl₃/20^oC)
CCCCCCCCCN1C(=O)c2ccc3c4ccc5c6c(ccc(c7ccc(c2c37)C1=O)c64)C(=O)N(CCCCCCCCC)C5=O [N,N'-Di(n-nonyl)perylen-3,4:9,10-bis(dicarboximid)] | 11 mg/100 ml
CCCN1C(=O)c2ccc3c4ccc5c6c(ccc(c7ccc(c2c37)C1=O)c64)C(=O)N(CCC)C5=O [N,N'-Di(1-Propyl)perylen-3,4:9,10-bis(dicarboximid)] | 5,3 mg/100 ml
CCCCN1C(=O)c2ccc3c4ccc5c6c(ccc(c7ccc(c2c37)C1=O)c64)C(=O)N(CCCC)C5=O [N,N'-Di(1-butyl)perylen-3,4:9,10-bis(dicarboximid)] | 8,9 mg/100 ml
CCCCCN1C(=O)c2ccc3c4ccc5c6c(ccc(c7ccc(c2c37)C1=O)c64)C(=O)N(CCCCC)C5=O [N,N'-Di(1-pentyl)perylen-3,4:9,10-bis(dicarboximid)] | 47 mg/100 ml

Same assay, conditions: CHCl₃, temperature not given; 10080 min

Compound | Löslichkeit (CHCl₃)
O=C1c2ccc3c4ccc5c6c(ccc(c7ccc(c2c37)C(=O)N1C1CCCCCCCCCCCCCCC1)c64)C(=O)N(C1CCCCCCCCCCCCCCC1)C5=O [N,N'-Dicyclohexadecylperylen-3,4:9,10-bis(dicarboximid)] | 0.56 g/100ml
CCCCCCCCCCCCCCCCCCN1C(=O)c2ccc3c4ccc5c6c(ccc(c7ccc(c2c37)C1=O)c64)C(=O)N(CCCCCCCCCCCCCCCCCC)C5=O [N,N'-Di(n-octadecyl)perylen-3,4:9,10-bis(dicarboximid)] | 1,8 mg/100 ml
CCCCCCCCCCCCCCN1C(=O)c2ccc3c4ccc5c6c(ccc(c7ccc(c2c37)C1=O)c64)C(=O)N(CCCCCCCCCCCCCC)C5=O [N,N'-Di(n-tetradecyl)perylen-3,4:9,10-bis(dicarboximid)] | 5.4 mg/100 ml
CCCCCCCCCCCCCCCCN1C(=O)c2ccc3c4ccc5c6c(ccc(c7ccc(c2c37)C1=O)c64)C(=O)N(CCCCCCCCCCCCCCCC)C5=O [N,N'-Di(n-hexadecyl)perylen-3,4:9,10-bis(dicarboximid)] | 6.0 mg/100 ml

Same assay, conditions: n-Heptan, 20 °C; 10080 min

Compound | Löslichkeit (n-Heptan/20^oC)
CCCCCCCCC(CCCCCCCC)N1C(=O)c2ccc3c4ccc5c6c(ccc(c7ccc(c2c37)C1=O)c64)C(=O)N(C(CCCCCCCC)CCCCCCCC)C5=O [N,N'-Di(1-octylnonyl)perylen-3,4:9,10-bis(dicarboximid)] | 0.30 g/100ml
CCCCCCCC(CCCCCCC)N1C(=O)c2ccc3c4ccc5c6c(ccc(c7ccc(c2c37)C1=O)c64)C(=O)N(C(CCCCCCC)CCCCCCC)C5=O [N,N'-Di(1-heptyloctyl)perylen-3,4:9,10-bis(dicarboximid)] | 0.59 g/100ml

Same assay, conditions: n-Heptan, temperature not given; 10080 min

Compound | Löslichkeit (n-Heptan)
CCCCCCCCCCCCC(CCCCCCCCCCCC)N1C(=O)c2ccc3c4ccc5c6c(ccc(c7ccc(c2c37)C1=O)c64)C(=O)N(C(CCCCCCCCCCCC)CCCCCCCCCCCC)C5=O [N,N'-Di(1-dodecyltridecyl)perylen-3,4:9,10-bis(dicarboximid)] | 67 mg/100 ml
CCCCCCCCCCC(CCCCCCCCCC)N1C(=O)c2ccc3c4ccc5c6c(ccc(c7ccc(c2c37)C1=O)c64)C(=O)N(C(CCCCCCCCCC)CCCCCCCCCC)C5=O [N,N'-Di(1-decylundecyl)Perylen-3,4:9,10-bis(dicarboximid)] | 4.8 g/100 ml
CCCCCCCCCCCCCCCCC(CCCCCCCCCCCCCCCC)N1C(=O)c2ccc3c4ccc5c6c(ccc(c7ccc(c2c37)C1=O)c64)C(=O)N(C(CCCCCCCCCCCCCCCC)CCCCCCCCCCCCCCCC)C5=O [N,N'-Di(1-hexadecylheptadecyl)perylen-3,4:9,10-bis(dicarboximid)] | 0.13 g/100 ml
CCCCCCCCCCCCCCCCCCC(CCCCCCCCCCCCCCCCCC)N1C(=O)c2ccc3c4ccc5c6c(ccc(c7ccc(c2c37)C1=O)c64)C(=O)N(C(CCCCCCCCCCCCCCCCCC)CCCCCCCCCCCCCCCCCC)C5=O [N,N'-Di(1-octadecylnonadecyl)perylen-3,4:9,10-bis(dicarboximid)] | 26 mg/100 ml
CCCCCCCCCC(CCCCCCCCC)N1C(=O)c2ccc3c4ccc5c6c(ccc(c7ccc(c2c37)C1=O)c64)C(=O)N(C(CCCCCCCCC)CCCCCCCCC)C5=O [N,N'-Di(1-nonyldecyl)perylen-3,4:9,10-bis(dicarboximid)] | 35 g/100 ml
